Data as given in US20250319140A1, “COMPOSITION” (MEIJI CO., LTD., priority 2019, published 2025).

How the values were obtained:
[1] = tested on: propionic acid production in the intestine; assay: Propionic acid concentration in feces of high fat diet-fed mice, measured by HPLC; assay type: in vivo; details: male C57BL/6J mice, feces collected at the end day of the test, compared with control group, P <0.05 paired t-test for the combination
Method: Male, 8-week-old C57BL/6J mice were divided into 5 groups and fed with a normal diet (AIN-93M) (manufactured by Oriental Yeast Co., Ltd.) or a high fat diet (HFD-60) (manufactured by Oriental Yeast Co., Ltd.). The groups fed with a high fat diet were administered with fructo-oligosaccharide (hereinafter, also referred to as “FOS”), a propionic acid bacterium (Propionibacterium freudenreichii ET-3, Accession No. FERM BP-8115, hereinafter also referred to as “P bacterium”), or both FOS and a propionic acid bacterium (hereinafter, also referred to as “FOS+P bacterium”), and bred for 8 weeks. The group fed with the high fat diet, but not administered with FOS and a propionic acid bacterium was defined as a control group. Meioligo™ P (manufactured by Meiji Food Materia Co., Ltd.) was used as FOS, which was incorporated in the high fat diet in an amount of 5% by mass, and administered. […] The body weight during the test period, the fat weight around the testes at the time of dissection, and the propionic acid concentration in feces collected at the end day of the test were measured, and the amount of weight gain was calculated from the body weights at the start and end of the test, and used for evaluation.
The propionic acid concentration in the feces was measured by HPLC after extracting the propionic acid from the feces. […]

[2] = Weight gain suppressing effect in mice fed a high fat diet (body weight, weight gain, fat weight around the testes); assay type: in vivo; details: male C57BL/6J mice, compared with control group
Method: Male, 8-week-old C57BL/6J mice were divided into 5 groups and fed with a normal diet (AIN-93M) (manufactured by Oriental Yeast Co., Ltd.) or a high fat diet (HFD-60) (manufactured by Oriental Yeast Co., Ltd.). The groups fed with a high fat diet were administered with fructo-oligosaccharide (hereinafter, also referred to as “FOS”), a propionic acid bacterium (Propionibacterium freudenreichii ET-3, Accession No. FERM BP-8115, hereinafter also referred to as “P bacterium”), or both FOS and a propionic acid bacterium (hereinafter, also referred to as “FOS+P bacterium”), and bred for 8 weeks. The group fed with the high fat diet, but not administered with FOS and a propionic acid bacterium was defined as a control group. Meioligo™ P (manufactured by Meiji Food Materia Co., Ltd.) was used as FOS, which was incorporated in the high fat diet in an amount of 5% by mass, and administered. A bacterial solution (living cells) activated and cultured in GAM bouillon (manufactured by Nissui Pharmaceutical Co., Ltd.) was washed with physiological saline, and then the number of propionic acid bacteria was adjusted to 5×10^9 cfu/mL to prepare a propionic acid bacterium. This bacterial solution was forcibly administered orally at a dose of 0.2 mL once daily every day from the start date to the end date of the test. To the groups not administered with the propionic acid bacterium (normal diet group, control group and FOS-administered group), physiological saline was forcibly administered orally at a dose of 0.2 mL once daily every day from the start date to the end date of the test. The body weight during the test period, the fat weight around the testes at the time of dissection, and the propionic acid concentration in feces collected at the end day of the test were measured, and the amount of weight gain was calculated from the body weights at the start and end of the test, and used for evaluation.

For “Propionibacterium freudenreichii ET-3 [propionic acid bacterium]”, the “propionic acid concentration in the feces” value [1] was “clearly higher than that in the control group”, the body weight ([2]; high fat diet (HFD-60), from the 6th week on of 8 weeks breeding) was “lower in the propionic acid bacterium-administered group than those in the control group” and the “fat weight around the testes” value ([2]; high fat diet, at dissection at end of 8-week test) was “low”. For the same substance, the “amount of weight gain” value ([2]; high fat diet, end day of the test (8 weeks) relative to initial body weight) was “low”.
